This note sets out measurements from EP1893207B1, “USE OF SUBSTITUTED PIPERAZINE DERIVATIVES AND MORPHOLINE DERIVATIVES” (Merck Patent GmbH, priority 2005, dated 2006).

Molecules are shown by their SMILES. pIC50: −log10 of the molar value.

The target in one test is Pilz-tyrosinase. Briefly: Tyrosinase assay (inhibition of the enzyme tyrosinase, L-DOPA substrate, optical density at 450 nm). The class given is biochemical. Particulars: Tyrosinase 10 U, L-DOPA 4 mM, 1 h 37°C. The protocol: Die Wirkung der Verbindungen nach Formeln Ia bis IIp als Hautaufheller wird geprüft durch ihre Fähigkeit das Enzym Tyrosinase zu hemmen und damit die Melanin-Synthese zu unterbinden. Um die hemmende Wirkung der Verbindungen der Formeln Ia bis IIp gegenüber Tyrosinase zu zeigen wurden als Substrate Pilz-tyrosinase und L-Tyrosin oder L-DOPA verwendet und mit der Referenz-Verbindung verglichen.
Die Verbindungen Ia bis IIp und Tyrosinase (10 U) werden 10 Min. in Eis vorgekühlt und L-DOPA (4 mM) zugefügt und für 1 h auf 37°C gehalten. Es wird die optische Dichte jedes experimentell ermittelten Punktes bei 450 nm gegenüber der entsprechenden Referenz ohne Enzym gemessen. Kojicsäure wird als Tyrosinase-Referenz-Inhibitor benutzt. Die Versuchsergebnisse sind in der folgenden Tabelle 1 dargestellt, ausgedrückt durch den IC 50-Wert (d.h. die Konzentration der jeweiligen Versuchssubstanz bei der die Tyrosinase-Aktivität um 50% blockiert ist). Tab. 1 Tyrosinase-Versuchsergebnisse

The test system of test [1] is normale menschliche Melanocyten. Briefly: Melanin assay (melanin content of human melanocyte cultures, optical density at 405 nm). The class given is cell-based. Particulars: 240 h incubation; for % Kontrolle normiert*: melanin content normalised; for % Kontrolle: melanin content. An excerpt: Das Potential der Verbindungen nach Formeln Ia bis IIp als Hautaufheller-Wirkstoff wurde außerdem durch den Melanin-Versuch verifiziert. Der Effekt in Bezug auf den Melanin-Gehalt von menschlichen epidermalen Melanocyten-Kulturen dieser Verbindungen wurde ermittelt und mit der Referenzverbindung (Kojicsäure) verglichen.
Eine vorausgehende Cytotoxizitäts-Studie der Verbindungen nach Formeln Ia bis IIp wurde durchgeführt um drei nicht-cytotoxische Konzentrationen für den Melanin-Versuch zu ermitteln.
Melanin-Versuch: normale menschliche Melanocyten wurden in 24 Lochplatten (110.000 Zellen/Loch) kultiviert. Bei 50 % Zusammenfluss wurde das Kulturmedium mit oder ohne (Kontrollverbindung) Verbindungen der Formeln Ia bis IIp durch frisches Kulturmedium in drei verschiedenen Konzentrationen ersetzt.
Nach der Inkubation (240 Stunden) wurden die Monolayers gewaschen, die Zellen lysiert und das Melanin extrahiert. Es wurde die optische Dichte jedes experimentellen Punktes bei 405 nm gegen den Melanin-Standard gemessen. Tabelle 2 zeigt die Ergebnisse zwei ausgewählter Verbindungen im Vergleich zur Kojicsäure und der Kontrollverbindung (mit 100% Melaningehalt), wobei der ermittelte Melaningehalt (in %) bei jeweils drei verschiedenen Konzentrationen angegeben ist. Tab. 2 Melanin-Versuchsergebnisse

On to `c1ccc(CN2CCN(Cc3ccccn3)CC2)cc1` [IIk, 1-Benzyl-4-pyridin-2-ylmethyl-piperazin], for which the pIC50 (in general, −log10 of the IC50, conventionally taken in molar units) at Pilz-tyrosinase was less than 3.00.

`c1cc(CN2CCNCC2)ccn1` [IIn, 1-Pydridin-4-ylmethyl-piperazin] gave a pIC50 at Pilz-tyrosinase of 3.55.

`c1cncc(CN2CCNCC2)c1` [IIo, 1-Pyridin-3-ylmethyl-piperazin]: at Pilz-tyrosinase, the pIC50 was 3.44.

`c1ccc(CN2CCNCC2)nc1` [IIp, 1-Pyridin-2-ylmethyl-piperazin] had a pIC50 on Pilz-tyrosinase of 3.26.

On Pilz-tyrosinase, `Oc1cccc(CN2CCN(Cc3ccccc3)CC2)c1O` [Ia, 3-(4-Benzyl-piperazin-1-ylmethyl)-benzen-1,2-diol] showed a pIC50 of 3.87. In test [1] (Konzent. 0.8 µg/mL), the Melanin is listed as 38.6 µg/mL, the “Melanin normiert*” value is on record as 36.4 µglmL, the “% Kontrolle normiert*” value worked out at 98% and the “% Kontrolle” value was found to be 104%.

`Oc1ccc(CN2CCN(Cc3ccccc3)CC2)c(O)c1` [Ib, 4-(4-Benzyl-piperazin-1-ylmethyl)-benzen-1,3-diol] gave a pIC50 on Pilz-tyrosinase of 3.81. In addition, in test [1] (Konzent. 0.8 µg/mL), the Melanin amounted to 37.8 µg/mL, the “Melanin normiert*” value came out at 37.1 µglmL, the “% Kontrolle normiert*” value turned out to be 100% and the “% Kontrolle” value turned out to be 102%. For the same compound, in test [1] (Konzent. 4 µg/mL), the Melanin amounted to 37.1 µg/mL, the “Melanin normiert*” value worked out at 34.8 µglmL, the “% Kontrolle normiert*” value is given as 94% and the “% Kontrolle” value came to 100%.

`Oc1cc(O)cc(CN2CCN(Cc3ccccc3)CC2)c1` [Id, 5-(4-Benzyl-piperazin-1-ylmethyl)-benzen-1,3-diol] gave a pIC50 at Pilz-tyrosinase of less than 3.00.

For `CCN1CCN(Cc2ccc(O)cc2O)CC1` [Ie, 4-(4-Ethyl-piperazin-1-ylmethyl)-benzen-1,3-diol], on Pilz-tyrosinase, the pIC50 is 3.58. In test [1] (Konzent. 0.8 µg/mL), the Melanin is given as 37.3 µg/mL, the “Melanin normiert*” value amounted to 36.5 µglmL, the “% Kontrolle normiert*” value was 98% and the “% Kontrolle” value is reported as 100%. In addition, in test [1] (Konzent. 4 µg/mL), the Melanin turned out to be 37.5 µg/mL, the “Melanin normiert*” value stood at 36.0 µglmL, the “% Kontrolle normiert*” value was found to be 97% and the “% Kontrolle” value was determined as 101%. Moreover, in test [1] (Konzent. 20 µg/mL), the Melanin was determined as 33.8 µg/mL, the “Melanin normiert*” value is given as 32.9 µglmL, the “% Kontrolle normiert*” value is given as 88% and the “% Kontrolle” value is on record as 91%.

In turn, `CC(C)(C)OC(=O)N1CCN(Cc2ccc(O)cc2O)CC1` [If, 4-(4-tert-Butoxycarbinyl-piperazin-1-ylmethyl)-benzen-1,3-diol] showed a pIC50 at Pilz-tyrosinase of 3.85.

`Oc1ccc(CN2CCOCC2)c(O)c1` [Ih, 4-Morpholin-1-ylmethyl-benzen-1,3-diol] showed a pIC50 against Pilz-tyrosinase of 4.11. In test [1] (Konzent. 1.6 µg/mL), the Melanin is 37.2 µg/mL, the “Melanin normiert*” value worked out at 37.0 µglmL, the “% Kontrolle normiert*” value turned out to be 99% and the “% Kontrolle” value came out at 100%. For the same compound, in test [1] (Konzent. 8 µg/mL), the Melanin is listed as 35.3 µg/mL, the “Melanin normiert*” value came to 32.1 µglmL, the “% Kontrolle normiert*” value is recorded as 86% and the “% Kontrolle” value is given as 95%. Besides, in test [1] (Konzent. 40 µg/mL), the Melanin is recorded as 30.6 µg/mL, the “Melanin normiert*” value amounted to 30.4 µglmL, the “% Kontrolle normiert*” value is 82% and the “% Kontrolle” value is listed as 82%.

In the case of `COc1ccc(CN2CCN(Cc3ccccc3)CC2)c(OC)c1` [Ii, 1-Benzyl-4-(2,4-dimethoxy-benzyl)-piperazin], the pIC50 on Pilz-tyrosinase is less than 3.00.

In turn, `c1ccc(CN2CCN(Cc3ccc4c(c3)OCO4)CC2)cc1` [Ij, 1-Benzo[1,3]dioxol-5-ylmethyl-4-benzyl-piperazin] gave a pIC50 against Pilz-tyrosinase of 3.82.

As for `O=c1cc(CO)occ1O` [Kojicsäure, reference compound], the pIC50 against Pilz-tyrosinase was 4.92. In addition, in test [1] (Konzent. 6.8 µg/mL), the Melanin came out at 34.4 µg/mL, the “Melanin normiert*” value came to 38.0 µglmL, the “% Kontrolle normiert*” value was 101% and the “% Kontrolle” value stood at 92%. In addition, in test [1] (Konzent. 15.6 µg/mL), the Melanin amounted to 30 µg/mL, the “Melanin normiert*” value is given as 34.6 µglmL, the “% Kontrolle normiert*” value was 92% and the “% Kontrolle” value amounted to 80%. Further, in test [1] (Konzent. 36 µg/mL), the Melanin is 23.8 µg/mL, the “Melanin normiert*” value was determined as 31.7 µglmL, the “% Kontrolle normiert*” value came out at 85% and the “% Kontrolle” value turned out to be 64%.
